These results are taken from PMC8229550 (Pharmaceuticals, 2021).

The target in data set [1] is SARS-CoV-2 main protease (M^Pro) (Severe acute respiratory syndrome coronavirus 2, UniProt P0DTD1). Description: biochemical.
Data set [2] can be described thus: MTT cytotoxicity assay. Format: cell-based. Particulars: normal human adult dermal fibroblasts (HDFa). The method, then:
To determine the half-maximal cell toxicity concentration (CC50) to assess the compound toxicity, we prepared stock solutions of the test compounds in 10% DMSO with ddH2O and further diluted with DMEM to the working solutions. The cytotoxic effect of the tested compounds was evaluated in normal human adult dermal fibroblasts (HDFa) (Sigma-Aldrich, Dorset, UK) using the previously reported 3-(4,5-dimethylthiazol-2-yl)-2,5-diphenyltetrazolium bromide (MTT) method with slight adjustments. Briefly, 100 µL cells/well at a density of 3 × 10^5 cells/mL were placed in 96-well plates and then incubated in 5% CO2 for 24 h at 37 °C. After 24 h, different concentrations of the test compound(s) were added to the cells in triplicate. After another 24 h, the supernatant was removed, and cells were washed with sterile 1× PBS three times. Then, 20 µL of 5 mg/mL MTT stock solution was added to each well, and the plate was incubated at 37 °C for 4 h. The produced formazan crystals were dissolved in 200 µL of acidified isopropanol (0.04 M HCl in absolute isopropanol). After that, we measured the absorbance of formazan solutions at λmax 540 nm using a BioTek Lx800 microplate reader (BioTek Instrument Ltd., Bedfordshire, UK). […]

Molecules are shown by their SMILES. Like-named read-outs stand apart in the source and are kept apart here.

A word on the IC50: it is the midpoint of a concentration-inhibition curve. The term Ki denotes a dissociation constant, usually derived from enzyme kinetics or from competition with a known ligand. What is called CC50 is the concentration at which the toxic effect on the cells reaches its halfway point. A low value points to harm at low concentration.

Turning to `O=C(O)c1cc(=O)c2c(OCC(O)COc3cccc4oc(C(=O)O)cc(=O)c34)cccc2o1` [Cromoglicic acid, cromoglicic acid], in data set [1], the IC50 came out at 1.1 µM and the Ki amounted to 0.68 µM. Further, in data set [1] (M^Pro inhibition, versus α-rubromycin), the “Potency relative to α-rubromycin (times more potent)” value is reported as 4.5 times. In data set [2], this molecule returned a CC50 at 24 h of more than 100 µM.
Regarding `COC(=O)c1cc2cc(CCc3cc4c(o3)C(=O)c3c(O)c(OC)cc(OC)c3C4=O)c(O)c(O)c2c(=O)o1` [α-Rubromycin, α-rubromycin], the Ki in data set [1] (0–250 µM substrate, 0–50 µM inhibitor, read-out: M^Pro inhibition constant Ki) stood at 3.22 µM. Besides, in data set [1] (fluorescence, 40 µM substrate, 4 h at 20 °C, read-out: M^Pro inhibitory activity IC50), the IC50 amounted to 5.4 µM. Moreover, the CC50 at 24 h in data set [2] came out at 16.7 µM.
